Test: xn = mol fraction of the nth substance listed

CC(=O)N1CCOCC1 + CCCO
viscosity [mPa·s], 101 kPa
Details | 293.15 K | 303.15 K | 313.15 K | 323.15 K
x1 = 0.0542 | 3.211 | 2.607 | 2.089 | 1.678
x1 = 0.1279 | 4.268 | 3.591 | 2.958 | 2.472
x1 = 0.2156 | 5.382 | 4.614 | 3.842 | 3.268
x1 = 0.2811 | 6.079 | 5.246 | 4.369 | 3.728
x1 = 0.3166 | 6.397 | 5.529 | 4.598 | 3.925
x1 = 0.3902 | 6.922 | 5.978 | 4.928 | 4.183
x1 = 0.4533 | 7.294 | 6.294 | 5.142 | 4.331
x1 = 0.5022 | 7.478 | 6.414 | 5.189 | 4.331
x1 = 0.5437 | 7.679 | 6.578 | 5.289 | 4.388
x1 = 0.5983 | 7.857 | 6.703 | 5.329 | 4.375
x1 = 0.6341 | 7.889 | 6.699 | 5.267 | 4.277
x1 = 0.6883 | 8.018 | 6.776 | 5.259 | 4.214
x1 = 0.7442 | 8.069 | 6.769 | 5.161 | 4.062
x1 = 0.7912 | 8.099 | 6.748 | 5.069 | 3.922
x1 = 0.8542 | 8.178 | 6.766 | 4.986 | 3.776
x1 = 0.9165 | 8.328 | 6.851 | 4.972 | 3.702
x1 = 0.9776 | 8.508 | 7.001 | 5.093 | 3.823

O=S(=O)([O-])[O-].[Na+].[Na+] + O
Details | viscosity [mPa·s]
293.15 K, 100 kPa, x1 = 0.003594 | 1.085
293.15 K, 100 kPa, x1 = 0.004923 | 1.125
293.15 K, 100 kPa, x1 = 0.01069 | 1.29
293.15 K, 100 kPa, x1 = 0.01596 | 1.483
293.15 K, 100 kPa, x1 = 0.02116 | 1.67
293.15 K, 100 kPa, x1 = 0.02795 | 1.939
293.15 K, 101.3 kPa, x1 = 0.0009 | 1.025
293.15 K, 101.3 kPa, x1 = 0.0018 | 1.046
293.15 K, 101.3 kPa, x1 = 0.00893 | 1.236
293.15 K, 101.3 kPa, x1 = 0.0125 | 1.349
293.15 K, 101.3 kPa, x1 = 0.0177 | 1.548
293.15 K, 101.3 kPa, x1 = 0.02116 | 1.701
298.15 K, 100 kPa, x1 = 6e-05 | 0.8907
298.15 K, 100 kPa, x1 = 0.00013 | 0.8915
298.15 K, 100 kPa, x1 = 0.00025 | 0.8935
298.15 K, 100 kPa, x1 = 0.00038 | 0.8955
298.15 K, 100 kPa, x1 = 0.003594 | 0.967
298.15 K, 100 kPa, x1 = 0.01069 | 1.148
298.15 K, 100 kPa, x1 = 0.01596 | 1.315
298.15 K, 100 kPa, x1 = 0.02116 | 1.508
298.15 K, 100 kPa, x1 = 0.02795 | 1.766
298.15 K, 101 kPa, x1 = 0.00893 | 1.099
298.15 K, 101 kPa, x1 = 0.0168 | 1.349
298.15 K, 101 kPa, x1 = 0.0222 | 1.556
298.15 K, 101 kPa, x1 = 0.03141 | 2.023
298.15 K, 101.3 kPa, x1 = 0.0009 | 0.9113
298.15 K, 101.3 kPa, x1 = 0.0018 | 0.9298
298.15 K, 101.3 kPa, x1 = 0.00893 | 1.1
298.15 K, 101.3 kPa, x1 = 0.0125 | 1.201
298.15 K, 101.3 kPa, x1 = 0.0177 | 1.374
298.15 K, 101.3 kPa, x1 = 0.02116 | 1.505
298.15 K, 101.3 kPa, x1 = 0.02631 | 1.72
298.15 K, 101.33 kPa, x1 = 0.03319 | 1.746
303.15 K, 100 kPa, x1 = 0.003594 | 0.868
303.15 K, 100 kPa, x1 = 0.01069 | 1.025
303.15 K, 100 kPa, x1 = 0.01596 | 1.171
303.15 K, 100 kPa, x1 = 0.02116 | 1.343
303.15 K, 100 kPa, x1 = 0.02795 | 1.584
303.15 K, 101.3 kPa, x1 = 0.0009 | 0.8166
303.15 K, 101.3 kPa, x1 = 0.0018 | 0.8339
303.15 K, 101.3 kPa, x1 = 0.00893 | 0.9866
303.15 K, 101.3 kPa, x1 = 0.0125 | 1.076
303.15 K, 101.3 kPa, x1 = 0.0177 | 1.229
303.15 K, 101.3 kPa, x1 = 0.02116 | 1.345
303.15 K, 101.3 kPa, x1 = 0.02631 | 1.531
308.15 K, 100 kPa, x1 = 6e-05 | 0.7195
308.15 K, 100 kPa, x1 = 0.00013 | 0.7205
308.15 K, 100 kPa, x1 = 0.00025 | 0.722
308.15 K, 100 kPa, x1 = 0.00038 | 0.724
308.15 K, 100 kPa, x1 = 0.00128 | 0.7637
308.15 K, 100 kPa, x1 = 0.003594 | 0.787
308.15 K, 100 kPa, x1 = 0.01069 | 0.933
308.15 K, 100 kPa, x1 = 0.01596 | 1.053
308.15 K, 100 kPa, x1 = 0.02116 | 1.205
308.15 K, 100 kPa, x1 = 0.02795 | 1.419
308.15 K, 101.3 kPa, x1 = 0.0009 | 0.7374
308.15 K, 101.3 kPa, x1 = 0.0018 | 0.7529
308.15 K, 101.3 kPa, x1 = 0.00893 | 0.8914
308.15 K, 101.3 kPa, x1 = 0.0125 | 0.9716
308.15 K, 101.3 kPa, x1 = 0.0177 | 1.107
308.15 K, 101.3 kPa, x1 = 0.02116 | 1.21
308.15 K, 101.3 kPa, x1 = 0.02631 | 1.373
308.65 K, 100 kPa, x1 = 0.004923 | 0.803
318.15 K, 101.3 kPa, x1 = 0.0009 | 0.6114
318.15 K, 101.3 kPa, x1 = 0.0018 | 0.624
318.15 K, 101.3 kPa, x1 = 0.00893 | 0.7405
318.15 K, 101.3 kPa, x1 = 0.0125 | 0.8058
318.15 K, 101.3 kPa, x1 = 0.0177 | 0.916
318.15 K, 101.3 kPa, x1 = 0.02116 | 0.9978
318.15 K, 101.3 kPa, x1 = 0.02631 | 1.127
323.15 K, 101 kPa, x1 = 0.00893 | 0.676
323.15 K, 101 kPa, x1 = 0.0168 | 0.819
323.15 K, 101.33 kPa, x1 = 0.05655 | 1.545

CCCCCC[n+]1ccn(C)c1.O=[N+]([O-])[O-] + CCCCCCCO
Details | viscosity [mPa·s]
308.15 K, 100 kPa, x1 = 0.9381 | 206.5

CCCCCC[n+]1ccn(C)c1.O=[N+]([O-])[O-] + CCC(C)O
Details | viscosity [mPa·s]
298.15 K, 100 kPa, x1 = 0.7392 | 237.5

CCOC(=O)c1cccc(O)c1 + CCCCCOC(C)=O
Details | viscosity [mPa·s]
298.15 K, 101 kPa, x2 = 0.5 | 1.587
